In general, pEC50 refers to the EC50 on a negative log10 scale, so that one unit is a factor of ten. Higher therefore signals a small EC50. Broadly, the clearance is the rate of elimination divided by the concentration. Lower therefore signals a low capacity for elimination.

pEC50: −log10 of the molar value. Where a SMILES comes first, the peptide text is derived from it. [ ]: non-standard residue; d: D form. Aib = CC(C)(N)C(=O)O

These results are taken from patent publication US20240239861A1, “GLUCAGON-RECEPTOR SELECTIVE POLYPEPTIDES AND METHODS OF USE THEREOF” (i2O Therapeutics, Inc., priority 2016, published 2024).

The target in one series is human GLP-1R (Homo sapiens, UniProt P43220). Briefly: Peptide-receptor mediated cAMP accumulation (LANCE Ultra cAMP) in CHO-K1 cells transfected with human GLP-1R. Format: cell-based. Particulars: hGLP1 pEC50 (cAMP mean (n = 3): 11 point curve starting at 1 nM, Table 3).
Chain of human GLP-1R (P43220 24-463): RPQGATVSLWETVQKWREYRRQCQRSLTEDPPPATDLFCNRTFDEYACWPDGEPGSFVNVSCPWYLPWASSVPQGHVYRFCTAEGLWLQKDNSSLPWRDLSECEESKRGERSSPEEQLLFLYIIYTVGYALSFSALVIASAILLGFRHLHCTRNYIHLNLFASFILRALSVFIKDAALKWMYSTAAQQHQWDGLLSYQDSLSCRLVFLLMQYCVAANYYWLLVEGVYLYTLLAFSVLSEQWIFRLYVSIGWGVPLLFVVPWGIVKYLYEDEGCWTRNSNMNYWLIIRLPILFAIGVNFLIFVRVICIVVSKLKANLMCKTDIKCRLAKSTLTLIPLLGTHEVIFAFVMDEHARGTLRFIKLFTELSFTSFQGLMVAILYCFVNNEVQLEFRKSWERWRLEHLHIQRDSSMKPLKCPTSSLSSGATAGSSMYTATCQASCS
The nature of the next series: in vivo. Particulars: male, rat.

Regarding `CC(C)C[C@H](NC(=O)[C@H](Cc1ccc(O)cc1)NC(=O)[C@H](CCCCN)NC(=O)[C@H](CO)NC(=O)[C@H](Cc1ccc(O)cc1)NC(=O)[C@H](CC(=O)O)NC(=O)[C@H](CO)NC(=O)[C@@H](NC(=O)[C@H](Cc1ccccc1)NC(=O)[C@@H](NC(=O)CNC(=O)[C@H](Cc1c[nH]cn1)NC(=O)[C@H](CO)NC(=O)[C@@H](N)Cc1ccc(O)cc1)[C@@H](C)O)[C@@H](C)O)C(=O)N[C@@H](CC(=O)O)C(=O)NC(C)(C)C(=O)N[C@@H](CCCCN)C(=O)N[C@@H](C)C(=O)N[C@@H](C)C(=O)N[C@@H](CCC(N)=O)C(=O)N[C@@H](CCC(=O)O)C(=O)N[C@@H](Cc1ccccc1)C(=O)N[C@H](C(=O)NC(C)(C)C(=O)N[C@@H](Cc1c[nH]c2ccccc12)C(=O)N[C@@H](CC(C)C)C(=O)N[C@@H](CCC(=O)O)C(=O)N[C@@H](CC(=O)O)C(=O)N[C@@H](CCC(=O)O)C(=O)N1CCC[C@H]1C(=O)N[C@@H](CO)C(=O)N[C@@H](CO)C(=O)NCC(=O)N[C@@H](C)C(=O)N1CCC[C@H]1C(=O)N1CCC[C@H]1C(=O)N1CCC[C@H]1C(=O)N[C@@H](CO)C(=O)O)C(C)C` [Compound A76] (H-YSHGTFTSDYSKYLD[Aib]KAAQEFV[Aib]WLEDEPSSGAPPPS-OH; N-terminus assumed), the pEC50 on human GLP-1R was less than 9.00. The clearance in the series “in vivo” came to 15.1 mL/min/kg.
On to `CC(C)C[C@H](NC(=O)[C@H](Cc1ccc(O)cc1)NC(=O)[C@H](CCCCN)NC(=O)[C@H](CO)NC(=O)[C@H](Cc1ccc(O)cc1)NC(=O)[C@H](CC(=O)O)NC(=O)[C@H](CO)NC(=O)[C@@H](NC(=O)[C@H](Cc1ccccc1)NC(=O)[C@@H](NC(=O)CNC(=O)[C@H](CCC(N)=O)NC(=O)[C@H](CO)NC(=O)[C@@H](N)Cc1ccc(O)cc1)[C@@H](C)O)[C@@H](C)O)C(=O)N[C@@H](CC(=O)O)C(=O)NC(C)(C)C(=O)N[C@@H](CCCCN)C(=O)N[C@@H](CCCNC(=N)N)C(=O)N[C@@H](C)C(=O)N[C@@H](CCC(N)=O)C(=O)N[C@@H](CCC(=O)O)C(=O)N[C@@H](Cc1ccccc1)C(=O)N[C@H](C(=O)NC(C)(C)C(=O)N[C@@H](Cc1c[nH]c2ccccc12)C(=O)N[C@@H](CC(C)C)C(=O)N[C@@H](CCC(=O)O)C(=O)N[C@@H](CC(=O)O)C(=O)N[C@@H](CCC(=O)O)C(=O)N1CCC[C@H]1C(=O)N[C@@H](CO)C(=O)N[C@@H](CO)C(=O)NCC(=O)N[C@@H](CCCCN)C(=O)N1CCC[C@H]1C(=O)N1CCC[C@H]1C(=O)N1CCC[C@H]1C(=O)N[C@@H](CO)C(=O)O)C(C)C` [Compound A86] (H-YSQGTFTSDYSKYLD[Aib]KRAQEFV[Aib]WLEDEPSSGKPPPS-OH; N-terminus assumed), for which the pEC50 on human GLP-1R is less than 9.00. In the series “in vivo”, the clearance is 14.7 mL/min/kg.
Consider `CC(C)C[C@H](NC(=O)[C@H](Cc1ccc(O)cc1)NC(=O)[C@H](CCCCN)NC(=O)[C@H](CO)NC(=O)[C@H](Cc1ccc(O)cc1)NC(=O)[C@H](CC(=O)O)NC(=O)[C@H](CO)NC(=O)[C@@H](NC(=O)[C@H](Cc1ccccc1)NC(=O)[C@@H](NC(=O)CNC(=O)[C@H](CCC(N)=O)NC(=O)[C@H](CO)NC(=O)[C@@H](N)Cc1c[nH]c2ccccc12)[C@@H](C)O)[C@@H](C)O)C(=O)N[C@@H](CC(=O)O)C(=O)NC(C)(C)C(=O)N[C@@H](CCCCN)C(=O)N[C@@H](CCCNC(=N)N)C(=O)N[C@@H](C)C(=O)N[C@@H](CCC(N)=O)C(=O)N[C@@H](CCC(=O)O)C(=O)N[C@@H](Cc1ccccc1)C(=O)N[C@H](C(=O)NC(C)(C)C(=O)N[C@@H](Cc1c[nH]c2ccccc12)C(=O)N[C@@H](CC(C)C)C(=O)N[C@@H](CCC(=O)O)C(=O)N[C@@H](CC(=O)O)C(=O)N[C@@H](CCC(=O)O)C(=O)N1CCC[C@H]1C(=O)N[C@@H](CO)C(=O)N[C@@H](CO)C(=O)NCC(=O)N[C@@H](CCCCN)C(=O)N1CCC[C@H]1C(=O)N1CCC[C@H]1C(=O)N1CCC[C@H]1C(=O)N[C@@H](CO)C(=O)O)C(C)C` [Compound A91] (H-WSQGTFTSDYSKYLD[Aib]KRAQEFV[Aib]WLEDEPSSGKPPPS-OH; N-terminus assumed), for which, on human GLP-1R, the pEC50 is less than 9.00. In the series “in vivo”, this molecule had a clearance of 13.7 mL/min/kg.
For `CC(C)C[C@H](NC(=O)[C@H](Cc1ccc(O)cc1)NC(=O)[C@H](CCCCN)NC(=O)[C@H](CO)NC(=O)[C@H](Cc1ccc(O)cc1)NC(=O)[C@H](CC(=O)O)NC(=O)[C@H](CO)NC(=O)[C@@H](NC(=O)[C@H](Cc1ccccc1)NC(=O)[C@@H](NC(=O)CNC(=O)[C@H](CCC(N)=O)NC(=O)[C@H](CO)NC(=O)[C@@H](N)Cc1ccc(O)cc1)[C@@H](C)O)[C@@H](C)O)C(=O)N[C@@H](CC(=O)O)C(=O)NC(C)(C)C(=O)N[C@@H](CCCCN)C(=O)N[C@@H](CCCNC(=N)N)C(=O)N[C@@H](C)C(=O)N[C@@H](CCC(N)=O)C(=O)N[C@@H](CCC(=O)O)C(=O)N[C@@H](Cc1ccccc1)C(=O)N[C@H](C(=O)NC(C)(C)C(=O)N[C@@H](Cc1c[nH]c2ccccc12)C(=O)N[C@@H](CC(C)C)C(=O)N[C@@H](CCC(=O)O)C(=O)N[C@@H](CC(=O)O)C(=O)N[C@@H](CCC(=O)O)C(=O)N1CCC[C@H]1C(=O)N[C@@H](CO)C(=O)N[C@@H](CO)C(=O)NCC(=O)N[C@@H](C)C(=O)N1CCC[C@H]1C(=O)N1CCC[C@H]1C(=O)N1CCC[C@H]1C(=O)N[C@@H](CO)C(=O)O)C(C)C` [Compound A94] (H-YSQGTFTSDYSKYLD[Aib]KRAQEFV[Aib]WLEDEPSSGAPPPS-OH; N-terminus assumed) the same measures were less than 9.00 and 16.5 mL/min/kg.
On to `CC(C)C[C@H](NC(=O)[C@H](Cc1ccc(O)cc1)NC(=O)[C@H](CCCCN)NC(=O)[C@H](CO)NC(=O)[C@H](Cc1ccc(O)cc1)NC(=O)[C@H](CC(=O)O)NC(=O)[C@H](CO)NC(=O)[C@@H](NC(=O)[C@H](Cc1ccccc1)NC(=O)[C@@H](NC(=O)CNC(=O)[C@H](CCC(N)=O)NC(=O)[C@H](CO)NC(=O)[C@@H](N)Cc1ccc(O)cc1)[C@@H](C)O)[C@@H](C)O)C(=O)N[C@@H](CC(=O)O)C(=O)NC(C)(C)C(=O)N[C@@H](CCCCN)C(=O)N[C@@H](C)C(=O)N[C@@H](C)C(=O)N[C@@H](CCC(N)=O)C(=O)N[C@@H](CCC(=O)O)C(=O)N[C@@H](Cc1ccccc1)C(=O)N[C@H](C(=O)NC(C)(C)C(=O)N[C@@H](Cc1c[nH]c2ccccc12)C(=O)N[C@@H](CC(C)C)C(=O)N[C@@H](CCC(=O)O)C(=O)N[C@@H](CC(=O)O)C(=O)N[C@@H](CCC(=O)O)C(=O)N1CCC[C@H]1C(=O)N[C@@H](CO)C(=O)N[C@@H](CO)C(=O)NCC(=O)N[C@@H](C)C(=O)N1CCC[C@H]1C(=O)N1CCC[C@H]1C(=O)N1CCC[C@H]1C(=O)N[C@@H](CO)C(=O)O)C(C)C` [Compound A95] (H-YSQGTFTSDYSKYLD[Aib]KAAQEFV[Aib]WLEDEPSSGAPPPS-OH; N-terminus assumed), for which the pEC50 on human GLP-1R was less than 9.00. In the series “in vivo”, this molecule gave a clearance of 15.4 mL/min/kg.
